US20120095024A1, “TOLUIDINE SULFONAMIDES AND THEIR USE” (Elara Pharmaceuticals GmbH, priority 2008, published 2012)

Tests used:
MCF7 cells = assay: Cell proliferation assay (ATPlite), MCF-7; format: cell-based, human; details: Homo sapiens, inhibition of cell proliferation, 72 h
Description: MCF-7 human breast adenocarcinoma cells and HL-60 acute promyelocytic leukaemia cells were obtained from ATCC (LGC Promochem). HG-1 multiple myeloma cells were obtained from Dr. D. Hose (DKFZ Heidelberg). The CellSensor® HRE-bla HCT116 cell line (colorectal carcinoma) was obtained from Invitrogen.
Cells were grown under humidified 95% air, 5% CO2 at 37° C. in Dulbecco's modified Eagle's medium (DMEM: MCF-7) or RPMI 1640 medium (RPMI: HL-60, HG-1) supplemented with 10% fetal bovine serum (FBS), 100 U/ml penicillin and 100 μg/ml streptomycin, 2 mM L-glutamine, and 2 ng/ml IL-6 (for the HG-1 cell line only). The HCT116 cell line was grown under the same atmospheric conditions in McCoy's 5A medium supplemented with 10% FBS and penicillin/streptomycin as above, in addition to blasticidin as a selection marker at a final concentration of 5 μg/ml.
Cell proliferation experiments were carried out in 96-well tissue culture plates with seeding of 2000 cells/well (MCF-7) or 1000 cells/well (HL-60, HG-1) in 100 μl of the relevant medium. Cells were subsequently incubated under the conditions mentioned for 24 h prior to addition of compounds.
For the determination of compound EC50 values, 10 μl compounds at 11× concentrations in 5.5% DMSO were added to the wells at various concentrations yielding a final constant percentage of 0.5% DMSO at the desired 1× compound concentration. As a positive control, cells were treated with 5.5% DMSO. The cells were then incubated for a further 72 h prior to the measurement.
To determine the degree of inhibition of cell proliferation, cells were treated with ATPlite solution according to the manufacturer's instructions (PerkinElmer, ATPlite 1-step Luminescence ATP Detection Assay System) and luciferase readout measured on an Envision HTS multilabel plate reader (PerkinElmer) in luminescence mode according to established protocols. Raw data were imported into an ActivityBase database (IDBS, ID Business Solutions) and EC50 values calculated using the IDBS program ActivityBase XE. Table 2A and 2B show the IC50 values obtained in the above-outlined cell proliferation assay for exemplary compounds of the invention.

[1] = system: estrogen receptor (ER)-mediated transcriptional activity; assay: Inhibition of estrogen receptor (ER) signaling, ERE-tk-luc transfection assay in MCF-7 cells; format: cell-based; details: Homo sapiens, MCF7, ERE-tk-luc luciferase readout, 24 h
Description: To determine the effect of the compounds on estrogen receptor (ER)-mediated transcriptional activity a transfection assay using the MCF-7 cell line was performed. A luciferase-coupled ERE-tk-luc construct was obtained from Dr. G. Reid (EMBL).
In brief, MCF-7 cells were maintained as described previously and seeded on the first experimental day at a concentration of 3500 cells/well in 100 μl medium and incubated under standard conditions for 24 h. Following this initial incubation period, transfection was carried out using 5 ng of the ERE-tk-luc construct (per well) and Exgene 500 transfection reagent (Fermentas) in a final buffered solution containing 150 mM NaCl and 20 mM Tris pH 8.4. The plates were then maintained for 3-4 hours until cell culture conditions in the incubator before compounds were added at 11× concentrations to yield the final desired compound concentrations in 0.5% DMSO (in the same manner as for the proliferation assays described previously).
After an additional 24 h incubation period the degree of inhibition of ER-signaling was determined via a luciferase readout. Cells were treated with Britelite™ plus solution according to the manufacturer's instructions (PerkinElmer, britelite plus, Ultra-High Sensitivity Luminescence Reporter Gene Assay System) and luciferase levels measured on an Envision HTS multilabel plate reader (PerkinElmer) in luminescence mode according to established protocols. Raw data were imported into an ActivityBase database (IDBS, ID Business Solutions) and IC50 values calculated using the IDBS program ActivityBase XE.

[2] = system: HIF mediated transcription; assay: Inhibition of activation of HIF mediated transcription under hypoxic conditions (CellSensor HRE-bla HCT-116); format: cell-based; details: Homo sapiens; HRE-bla HCT-116 cells, deferoxamine-induced hypoxia, 24 h
Description: Inhibition of an activated HIF signaling response under chemically-induced hypoxic conditions due to compound treatment was determined using the CellSensor® HRE-bla HCT-116 stably transfected reporter cell line from Invitrogen according to the manufacturer's instructions. HIF is a transcriptional factor composed of the constitutively expressed HIF1β subunit and one of three HIFα subunits (HIF1α, HIF2α, HIF3α). This assay is responsive towards HIFa activity in general. In one example, HIF-1, when stabilized by hypoxic conditions, upregulates several genes to promote cell survival in low-oxygen conditions. These include glycolysis enzymes, which allow ATP synthesis in an oxygen-independent manner, and vascular endothelial growth factor (VEGF), which promotes angiogenesis. HIF-1 acts by binding to HIF-responsive elements (HREs) in promoters that generally contain the sequence NCGTG.
Cells were maintained as described previously and seeded into 384-well, clear-bottom plates (Corning 3712) at 15000 cells/well in 32 μl assay medium (Opti-MEM [Invitrogen], 0.5% FBS, 100 U/ml penicillin, 100 μg/ml streptomycin, 0.1 mM non-essential amino acids [NEAA], 1 mM sodium pyruvate, 5 mM HEPES [pH 7.3]). Following a 2 h incubation period, compounds (4 μl) were subsequently added to the cells at 10× concentrations in 5% DMSO and incubated under normal conditions for 30 min. To induce hypoxic conditions, 4 μl of a 2 mM deferoxamine (DFO) solution was added to the cells followed by 24 h incubation under standard assay conditions (as described). Control wells included wells containing only medium (no cells) and wells treated with 0.5% DMSO instead of compound.
Prior to the readout, the Substrate Loading Solution was prepared as described in the manufacturer's protocol and 10 μl added to each well. Following a further 2 h incubation period at room temperature and in the dark, fluorescence was measured at two wavelengths (blue channel: ex. 409 nm, em. 460 nm; green channel: ex. 409 nm, em. 530 nm) on a PerkinElmer Envision HTS. For the analysis, the average signal of the cell-free wells at 460 nm and 530 nm was first subtracted from the blue and green channel data, respectively. The blue/green emission ratios were then calculated for each well, dividing the background-corrected blue emission values by the background-corrected green emission values. IC50 values were determined from these ratios using GraphPad Prism (Prism 5, GraphPad software, Inc.).

| SMILES | EC50 (MCF7 cells) [µM] | IC50 [1] [µM] | EC50 [2] [µM] |
| --- | --- | --- | --- |
| Cc1ccc(S(=O)(=O)Nc2cc(-c3ccco3)ccc2C)cc1 [Example 4, N-(5-Furan-2-yl-2-methyl-phenyl)-4-methyl-benzenesulfonamide] | < 0.5 | < 0.5 | – |
| COc1ccc(S(=O)(=O)Nc2cc(-n3cccc3)ccc2C)cc1 [Example 21, 4-Methoxy-N-(2-methyl-5-pyrrol-1-yl-phenyl)-benzenesulfonamide] | < 0.5 | – | – |
| Cc1ccc(S(=O)(=O)Nc2cc(-c3c(C)noc3C)ccc2C)cc1 [Example 48, N-[5-(3,5-Dimethyl-isoxazol-4-yl)-2-methyl-phenyl]-4-methyl-benzenesulfonamide] | < 0.5 | – | – |
| Cc1ccc(S(=O)(=O)Nc2cc(-n3c(C)ccc3C)ccc2C)cc1 [Example 29, N-[5-(2,5-Dimethyl-pyrrol-1-yl)-2-methyl-phenyl]-4-methyl-benzenesulfonamide] | 1 to 10 | – | – |
| COc1ccc(S(=O)(=O)Nc2cc(-c3ccc(C#N)c(C#N)c3)ccc2C)cc1 [Example 65, N-(3′,4′-Dicyano-4-methyl-biphenyl-3-yl)-4-methoxy-benzenesulfonamide] | < 0.5 | – | – |
| CC(=O)c1ccc(-c2ccc(C)c(NS(=O)(=O)c3ccc(C)cc3)c2)nc1 [Example 54, N-[5-(5-Acetyl-pyridin-2-yl)-2-methyl-phenyl]-4-methyl-benzenesulfonamide] | 1 to 10 | – | – |
| COc1ccc(S(=O)(=O)Nc2cc(-c3cc(C)sc3C)ccc2C)cc1 [Example 13, N-[5-(2,5-Dimethyl-thiophen-3-yl)-2-methyl-phenyl]-4-methoxy-benzenesulfonamide] | 1 to 10 | – | – |
| CC(=O)c1cccc(-c2ccc(C)c(NS(=O)(=O)c3ccc(C)cc3)c2)n1 [Example 42, N-[5-(6-Acetyl-pyridin-2-yl)-2-methyl-phenyl]-4-methyl-benzenesulfonamide] | 0.5 to 1 | – | – |
| COc1ccc(-c2ccc(C)c(NS(=O)(=O)c3ccc(C)cc3)c2)cn1 [Example 18, N-[5-(6-Methoxy-pyridin-3-yl)-2-methyl-phenyl]-4-methyl-benzenesulfonamide] | 1 to 10 | – | – |
| COc1cncc(-c2ccc(C)c(NS(=O)(=O)c3ccc(C)cc3)c2)c1 [Example 35, N-[5-(5-Methoxy-pyridin-3-yl)-2-methyl-phenyl]-4-methyl-benzenesulfonamide] | 1 to 10 | – | – |
| COc1ccc(S(=O)(=O)Nc2cc(-c3cnco3)ccc2C)cc1 [Example 20, 4-Methoxy-N-(2-methyl-5-oxazol-5-yl-phenyl)-benzenesulfonamide] | < 0.5 | – | – |
| COc1ccc(S(=O)(=O)Nc2cc(-c3ccccc3C#N)ccc2C)cc1 [Example 58, N-(2′-Cyano-4-methyl-biphenyl-3-yl)-4-methoxy-benzenesulfonamide] | 0.5 to 1 | – | – |

Second part, the molecule after the results:

| EC50 (MCF7 cells) [µM] | IC50 [1] [µM] | EC50 [2] [µM] | SMILES |
| --- | --- | --- | --- |
| < 0.5 | – | < 0.5 | Cc1ccc(S(=O)(=O)Nc2cc(-c3ccc(C#N)c(F)c3)ccc2C)cc1 [Example 71, N-(4′-Cyano-3′-fluoro-4-methyl-biphenyl-3-yl)-4-methyl-benzenesulfonamide] |
| < 0.5 | – | < 0.5 | Cc1ccc(S(=O)(=O)Nc2cc(-c3csc(C#N)c3)ccc2C)cc1 [Example 68, N-[5-(5-Cyano-thiophen-3-yl)-2-methyl-phenyl]-4-methyl-benzenesulfonamide] |
| < 0.5 | – | < 0.5 | Cc1ccc(-c2ccc(C#N)s2)cc1NS(=O)(=O)c1ccc2c(c1)OCO2 [Example 114, N-(5-(5-cyanothiophen-2-yl)-2-methylphenyl)benzo[d][1,3]dioxole-5-sulfonamide] |
| < 0.5 | – | < 0.5 | Cc1cc(S(=O)(=O)Nc2cc(-c3ccc(C#N)s3)ccc2C)ccc1F [Example 112, N-(5-(5-cyanothiophen-2-yl)-2-methylphenyl)-4-fluoro-3-methylbenzenesulfonamide] |
| < 0.5 | – | < 0.5 | COc1ccc(S(=O)(=O)Nc2cc(-c3ccc(C#N)c(OC)c3)ccc2C)cc1F [Example 103, N-(4′-cyano-3′-methoxy-4-methylbiphenyl-3-yl)-3-fluoro-4-methoxybenzenesulfonamide] |
| < 0.5 | – | < 0.5 | Cc1ccc(S(=O)(=O)Nc2cc(-c3csc(C#N)c3)ccc2C)cc1F [Example 95, N-(5-(5-cyanothiophen-3-yl)-2-methylphenyl)-3-fluoro-4-methylbenzenesulfonamide] |
| 1 to 10 | – | – | COc1nccc(-c2ccc(C)c(NS(=O)(=O)c3ccc(C)cc3)c2)n1 [Example 107, N-(5-(2-methoxypyrimidin-4-yl)-2-methylphenyl)-4-methylbenzenesulfonamide] |
| 1 to 10 | – | – | Cc1ccc(-c2ccc(C#N)cc2)cc1NS(=O)(=O)c1cccc(F)c1 [Example 104, N-(4′-cyano-4-methylbiphenyl-3-yl)-3-fluorobenzenesulfonamide] |
| 0.5 to 1 | – | – | Cc1ccc(-c2ccc(C#N)s2)cc1NS(=O)(=O)c1ccc(F)cc1 [Example 91, N-[5-(5-Cyano-thiophen-2-yl)-2-methyl-phenyl]-4-fluoro-benzenesulfonamide] |
| < 0.5 | – | – | COc1cc(-c2ccc(C)c(NS(=O)(=O)c3ccc(C)c(F)c3)c2)ccc1C#N [Example 99, N-(4′-cyano-3′-methoxy-4-methylbiphenyl-3-yl)-3-fluoro-4-methylbenzenesulfonamide] |
| < 0.5 | – | – | COc1ccc(S(=O)(=O)Nc2cc(-c3ccc(C#N)cc3)ccc2C)cc1F [Example 85, N-(4′-Cyano-4-methyl-biphenyl-3-yl)-3-fluoro-4-methoxy-benzenesulfonamide] |
| 0.5 to 1 | – | – | Cc1ccc(-c2ccc(C#N)s2)cc1NS(=O)(=O)c1ccc(C#N)cc1 [Example 116, 4-cyano-N-(5-(5-cyanothiophen-2-yl)-2-methylphenyl)benzenesulfonamide] |
| 1 to 10 | – | – | Cc1ccc(S(=O)(=O)Nc2cc(-c3ccc(N)cn3)ccc2C)cc1 [Example 106, N-(5-(5-aminopyridin-2-yl)-2-methylphenyl)-4-methylbenzenesulfonamide] |
| 1 to 10 | – | – | Cc1ccc(-c2ccc(C#N)s2)cc1NS(=O)(=O)c1ccc(OC(F)(F)F)cc1 [Example 79, N-[5-(5-Cyano-thiophen-2-yl)-2-methyl-phenyl]-4-trifluoromethoxy-benzenesulfonamide] |
